According to PubChem BioAssay (NCI):
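These data come from cells grown in 96-well plates and exposed to compound for 48 hours at five concentrations. Abbreviation: GI50, concentration required for 50% inhibition of growth. TGI denotes the concentration required for complete inhibition of growth.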

Experiments:
Test in all cases: NCI anticancer screen, dose series, 48 h
OVCAR-5 ovarian = tested on: OVCAR-5 ovarian
MDA-MB-231 breast = tested on: MDA-MB-231 breast
OVCAR-3 ovarian = tested on: OVCAR-3 ovarian
MALME-3M melanoma = tested on: MALME-3M melanoma
ACHN renal = tested on: ACHN renal
KM12 colon = tested on: KM12 colon
OVCAR-8 ovarian = tested on: OVCAR-8 ovarian
RPMI-8226 leukemia = tested on: RPMI-8226 leukemia
SR leukemia = tested on: SR leukemia
MOLT-4 leukemia = tested on: MOLT-4 leukemia
SNB-19 CNS = tested on: SNB-19 CNS
HOP-62 NSCLC = tested on: HOP-62 NSCLC
SK-OV-3 ovarian = tested on: SK-OV-3 ovarian
T-47D breast = tested on: T-47D breast
UO-31 renal = tested on: UO-31 renal
NCI/ADR-RES ovarian = tested on: NCI/ADR-RES ovarian
SW-620 colon = tested on: SW-620 colon
CAKI-1 renal = tested on: CAKI-1 renal
UACC-257 melanoma = tested on: UACC-257 melanoma
SF-268 CNS = tested on: SF-268 CNS
HCT-116 colon = tested on: HCT-116 colon
NCI-H226 lung = tested on: NCI-H226 lung
HL-60(TB) leukemia = tested on: HL-60(TB) leukemia
LOX IMVI melanoma = tested on: LOX IMVI melanoma
MCF7 breast = tested on: MCF7 breast
M14 melanoma = tested on: M14 melanoma
SK-MEL-2 melanoma = tested on: SK-MEL-2 melanoma
HCT-15 colon = tested on: HCT-15 colon
BT-549 breast = tested on: BT-549 breast
786-0 renal = tested on: 786-0 renal
SK-MEL-5 melanoma = tested on: SK-MEL-5 melanoma
MDA-MB-435 = tested on: MDA-MB-435
U251 CNS = tested on: U251 CNS
EKVX NSCLC = tested on: EKVX NSCLC
RXF 393 renal = tested on: RXF 393 renal
HS 578T breast = tested on: HS 578T breast
COLO 205 colon = tested on: COLO 205 colon
SN12C renal = tested on: SN12C renal
MDA-MB-468 breast = tested on: MDA-MB-468 breast
NCI-H522 lung = tested on: NCI-H522 lung
K-562 leukemia = tested on: K-562 leukemia
SF-295 CNS = tested on: SF-295 CNS
SK-MEL-28 melanoma = tested on: SK-MEL-28 melanoma
IGROV1 ovarian = tested on: IGROV1 ovarian
TK-10 renal = tested on: TK-10 renal
SF-539 CNS = tested on: SF-539 CNS
HCC-2998 colon = tested on: HCC-2998 colon
CCRF-CEM leukemia = tested on: CCRF-CEM leukemia
UACC-62 melanoma = tested on: UACC-62 melanoma
NCI-H23 lung = tested on: NCI-H23 lung
PC-3 prostate = tested on: PC-3 prostate
A498 renal = tested on: A498 renal
OVCAR-4 ovarian = tested on: OVCAR-4 ovarian
DU-145 prostate = tested on: DU-145 prostate
NCI-H460 lung = tested on: NCI-H460 lung
HOP-92 NSCLC = tested on: HOP-92 NSCLC
A549 NSCLC = tested on: A549 NSCLC
HT29 colon = tested on: HT29 colon
SNB-75 CNS = tested on: SNB-75 CNS

`Cc1ccc(C(=O)NCCCNc2nc(Nc3ccc(N4CCN(C)CC4)cc3)nc3ccsc23)cc1` gave a GI50 (OVCAR-5 ovarian) of 11 µM, a TGI (OVCAR-5 ovarian) of 25.5 µM and a GI50 (MDA-MB-231 breast) of 3.17 µM. The TGI (MDA-MB-231 breast) was 10.7 µM, the GI50 (OVCAR-3 ovarian) was 3.08 µM and the TGI (OVCAR-3 ovarian) was 10.9 µM. It also gave a GI50 (MALME-3M melanoma) of 1.79 µM, a TGI (MALME-3M melanoma) of 3.27 µM and a GI50 (ACHN renal) of 3.99 µM. For the same compound, the TGI (ACHN renal) was 15 µM, the GI50 (KM12 colon) was 4.02 µM and the TGI (KM12 colon) was 15.8 µM. The GI50 (OVCAR-8 ovarian) was 3 µM, the TGI (OVCAR-8 ovarian) was 11.7 µM and the GI50 (RPMI-8226 leukemia) was 2.02 µM. The TGI (RPMI-8226 leukemia) was 6.4 µM, the GI50 (SR leukemia) was 1.69 µM and the TGI (SR leukemia) was 4.71 µM. The GI50 (MOLT-4 leukemia) was 1.8 µM, the TGI (MOLT-4 leukemia) was 4.89 µM and the GI50 (SNB-19 CNS) was 10.2 µM. It also gave a TGI (SNB-19 CNS) of 22.2 µM, a GI50 (HOP-62 NSCLC) of 10.3 µM and a TGI (HOP-62 NSCLC) of 23.4 µM. It also gave a GI50 (SK-OV-3 ovarian) of 10.8 µM, a TGI (SK-OV-3 ovarian) of 24 µM and a GI50 (T-47D breast) of 2.25 µM. For the same compound, the TGI (T-47D breast) was 7.62 µM, the GI50 (UO-31 renal) was 3.57 µM and the TGI (UO-31 renal) was 15.3 µM. The GI50 (NCI/ADR-RES ovarian) was 3.11 µM, the TGI (NCI/ADR-RES ovarian) was 11.4 µM and the GI50 (SW-620 colon) was 2.63 µM. For the same compound, the TGI (SW-620 colon) was 8 µM, the GI50 (CAKI-1 renal) was 3.3 µM and the TGI (CAKI-1 renal) was 14.1 µM. The GI50 (UACC-257 melanoma) was 2.2 µM, the TGI (UACC-257 melanoma) was 6.2 µM and the GI50 (SF-268 CNS) was 2.46 µM. The TGI (SF-268 CNS) was 17.9 µM, the GI50 (HCT-116 colon) was 2.62 µM and the TGI (HCT-116 colon) was 10.2 µM. For the same compound, the GI50 (NCI-H226 lung) was 4.79 µM, the TGI (NCI-H226 lung) was 19.4 µM and the GI50 (HL-60(TB) leukemia) was 1.99 µM. It also gave a TGI (HL-60(TB) leukemia) of 4.52 µM, a GI50 (LOX IMVI melanoma) of 1.71 µM and a TGI (LOX IMVI melanoma) of 3.86 µM. It also gave a GI50 (MCF7 breast) of 3.22 µM, a TGI (MCF7 breast) of 11.4 µM and a GI50 (M14 melanoma) of 2.14 µM. The TGI (M14 melanoma) was 4.77 µM, the GI50 (SK-MEL-2 melanoma) was 4.33 µM and the TGI (SK-MEL-2 melanoma) was 16.5 µM. It also gave a GI50 (HCT-15 colon) of 2.54 µM, a TGI (HCT-15 colon) of 11.2 µM and a GI50 (BT-549 breast) of 2.46 µM. The TGI (BT-549 breast) was 7.15 µM, the GI50 (786-0 renal) was 2.02 µM and the TGI (786-0 renal) was 6.3 µM. For the same compound, the GI50 (SK-MEL-5 melanoma) was 1.84 µM, the TGI (SK-MEL-5 melanoma) was 4.08 µM and the GI50 (MDA-MB-435) was 4.31 µM. It also gave a TGI (MDA-MB-435) of 15.5 µM, a GI50 (U251 CNS) of 2.78 µM and a TGI (U251 CNS) of 11.1 µM. For the same compound, the GI50 (EKVX NSCLC) was 10.2 µM, the TGI (EKVX NSCLC) was 22.3 µM and the GI50 (RXF 393 renal) was 1.47 µM. It also gave a TGI (RXF 393 renal) of 3.71 µM, a GI50 (HS 578T breast) of 2.55 µM and a TGI (HS 578T breast) of 18.3 µM. The GI50 (COLO 205 colon) was 2.35 µM, the TGI (COLO 205 colon) was 5.43 µM and the GI50 (SN12C renal) was 7.19 µM. It also gave a TGI (SN12C renal) of 20.7 µM, a GI50 (MDA-MB-468 breast) of 1.3 µM and a TGI (MDA-MB-468 breast) of 4.45 µM. The GI50 (NCI-H522 lung) was 2.21 µM, the TGI (NCI-H522 lung) was 5.86 µM and the GI50 (K-562 leukemia) was 1.74 µM. For the same compound, the TGI (K-562 leukemia) was 18.4 µM, the GI50 (SF-295 CNS) was 2.68 µM and the TGI (SF-295 CNS) was 7.7 µM. The GI50 (SK-MEL-28 melanoma) was 2.18 µM, the TGI (SK-MEL-28 melanoma) was 4.64 µM and the GI50 (IGROV1 ovarian) was 4.4 µM. It also gave a TGI (IGROV1 ovarian) of 17 µM, a GI50 (TK-10 renal) of 3.14 µM and a TGI (TK-10 renal) of 9.36 µM. For the same compound, the GI50 (SF-539 CNS) was 1.73 µM, the TGI (SF-539 CNS) was 3.42 µM and the GI50 (HCC-2998 colon) was 3.44 µM. The TGI (HCC-2998 colon) was 9.5 µM, the GI50 (CCRF-CEM leukemia) was 1.87 µM and the TGI (CCRF-CEM leukemia) was greater than 100 µM. It also gave a GI50 (UACC-62 melanoma) of 1.98 µM, a TGI (UACC-62 melanoma) of 4.21 µM and a GI50 (NCI-H23 lung) of 5.59 µM. For the same compound, the TGI (NCI-H23 lung) was 20.5 µM, the GI50 (PC-3 prostate) was 3.33 µM and the TGI (PC-3 prostate) was 14.8 µM. It also gave a GI50 (A498 renal) of 12.3 µM, a TGI (A498 renal) of 24.9 µM and a GI50 (OVCAR-4 ovarian) of 3.45 µM. It also gave a TGI (OVCAR-4 ovarian) of 15 µM, a GI50 (DU-145 prostate) of 5.89 µM and a TGI (DU-145 prostate) of 19.2 µM. It also gave a GI50 (NCI-H460 lung) of 3.75 µM, a TGI (NCI-H460 lung) of 14 µM and a GI50 (HOP-92 NSCLC) of 2.23 µM. The TGI (HOP-92 NSCLC) was 10.4 µM, the GI50 (A549 NSCLC) was 3.99 µM and the TGI (A549 NSCLC) was 16.3 µM. For the same compound, the GI50 (HT29 colon) was 2.06 µM, the TGI (HT29 colon) was 5.96 µM and the GI50 (SNB-75 CNS) was 1.91 µM. For the same compound, the TGI (SNB-75 CNS) was 12.1 µM.
